The values below are quoted from earlier work in patent publication US6989139B2, “Matrix metalloproteinase inhibitors” (Bristol-Myers Squibb Pharma Company, priority 2000, dated 2006).

The test system of one data set is MMP's. The following applies: literature statement.
The test system of data set [1] is MMP-2, MMP-9 vs MMP-1, MMP-3. As to conditions: Lovejoy et al 1999.

On to “2-[2-({5-[N-(5-(N-hydroxycarbamoyl)(5R)-5-{3-[4-(3,4-dimethoxyphenoxy)phenyl]-3-methyl-2-oxopyrrolidinyl}pentyl)carbamoyl](2-pyridyl)}amino)(1Z)-2-azavinyl]benzenesulfonic Acid [Example 15]”, for which the MMP inhibitory activity result in the data set on MMP's is “good activity”.
With “2-[(2-{[(N-{[4-({[7-(N-hydroxycarbamoyl)(3S,6R,7S)-4-aza-6-(2-methylpropyl)-11-oxa-5-oxobicyclo[10.2.2)hexadeca-1(15),12(16),13-trien-3-yl]-carbonylamino}methyl)phenyl]methyl}carbamoyl)methyl](carboxymeth yl)amino}ethyl){2-[bis(carboxymethyl)amino]ethyl}amino]acetic Acid [Example 8]”, in the data set on MMP's, the MMP inhibitory activity entry is “potent inhibition”.
For `CC(C)C[C@H]1C(=O)N[C@H](C(=O)NCc2ccc(CNC(=O)C(CS(=O)(=O)O)NC(=O)CN3CCN(CC(=O)O)CCN(CC(=O)O)CCN(CC(=O)O)CC3)cc2)Cc2ccc(cc2)OCCC[C@@H]1C(=O)NO` (stereo partly drawn) [Example 6, 2-[7-({N-[1-(N-{[4-({[7-(N-hydroxycarbamoyl)(3S,6R,7S)-4-aza-6-(2-methylpropyl)-11-oxa-5-oxobicyclo[10.2.2]hexadeca-1(15),12(16),13-trien-3-yl]-carbonylamino}methyl)phenyl]methyl}carbamoyl)-2-sulfoethyl]carbamoyl}methyl)-1,4,7,10-tetraaza-4,10-bis(carboxymethyl)cyclododecyl]acetic Acid], in the data set with MMP's, the MMP inhibitory activity entry is on record as “nanomolar activity”.
In the case of `O=C(NO)C1(CS(=O)(=O)c2ccc(Oc3ccc(Cl)cc3)cc2)CCOCC1` [Example 13], the “selectivity for MMP-2 and MMP-9 over MMP-1” value in data set [1] is “selectivity for MMP-2 and MMP-9 over MMP-1”.
